# Measured values published in US20250032437A1, “D-Serine Inhibits Neuroinflammation Due To A Brain Injury” (Florida State University Research Foundation, Inc., priority 2019, published 2025).
# Tested on: entorhinal cortex (neurons, astrocytes, microglia) of animals made epileptic with a chemo-convulsant
# Experiment: D-serine injected into the entorhinal area in an animal model of Temporal Lobe Epilepsy; neurons, astrocytes and microglia identified with fluorescent-tagged antibodies
# Type: in vivo
# Method: These cells cause inflammation in brain tissue by releasing cytokines. These neuroinflammatory cell types were identified using fluorescent-tagged antibodies first in control animals and then in animals that were made epileptic using a well-established animal model of Temporal Lobe Epilepsy. […] In a separate sample of animals, D-serine was injected into the entorhinal area prior to making them epileptic with a chemo-convulsant and immediately after administration of the chemo-convulsant.
# [1] = D-serine injected into the entorhinal area, FIG. 2 vs FIG. 3
smiles,measurement,setting,value
N[C@H](CO)C(=O)O [D-serine],development of epilepsy after chemo-convulsant,D-serine injected into the entorhinal area prior to and immediately after administration of the chemo-convulsant,did not become epileptic
same,astrocytes in the entorhinal region (GFAP),[1],fewer astrocytes
same,neurons in the entorhinal cortex (NeuN) compared with the epileptic animals,[1],significant rescue of neurons
same,infiltration of microglia to the entorhinal region (OX42),"D-serine injected into the entorhinal area, FIG. 7 vs FIG. 8",significantly reduced
